# Results as given in patent publication US12162857B2, “Antiviral compounds” (priority 2022, dated 2024).
# How the values were obtained:
# HMPV A2 TN/94-49 = assay: HMPV antiviral assay: LLC-MK2 cells, ATP-Lite readout; type: cell-based; settings: MOI 0.005, 7 days incubation
# How it was run: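 LLC-MK2 cells (5,000/well) were infected in suspension with HMPV A2 TN/94-49 at MOI 0.005 in serum-free OptiMEM with 2 μg/mL final TPCK-trypsin, then incubated for 7 days at 37 °C. Compounds were tested in duplicate from 2 μM in 10-point 2.5-fold dilutions. ATP-Lite luminescence, normalised to virus-only and cells-only controls as % cell health, gave EC50 by four-parameter fit.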
# [1] = system: Human RSV-A (“Long” strain); assay: RSV-A assay: CPE in Hep-2 cells, ATPlite readout; type: cell-based; settings: MOI 0.1, 5-day incubation
# From the text: Hep-2 cells, (originally derived from tumors grown in irradiated-cortisonised weanling rats that had been injected with epidermoid carcinoma tissue from a person's larynx, but later found to be indistinguishable from HeLa cells by PCR DNA analysis), were used for the culturing of genotype A, “Long” strain RSV. Flasks were inoculated with RSV and viral stocks were collected once cytopathic effect (CPE) was greater than 90%. Viral stocks in 25% sucrose media were snap frozen using liquid nitrogen to increase viral stability. Viral stock titers were quantified by tissue culture infectious dose 50% (TCID50) using 8,000 cells per well and 3-fold viral dilutions across a 96-well plate, cultured for 4 days. Viral stock titers were also quantified by a plaque forming unit assay, as described elsewhere.
# Following extensive parameter testing, the final assay is run as follows: Hep-2 cells are seeded into the inner 60 wells of a 96-well plate at 8,000 cells per well in a volume of 50 μL using Growth Media (DMEM without phenol red, 1% L-Glut, 1% Penn/Strep, 1% nonessential amino acids, 10% heat-inactivated FBS). 2-fold serial dilutions of control and test compounds are added to the wells in duplicate in a total volume of 25 μL. Viral stock is then added to the wells at a multiplicity of infection (MOI) of 0.1 in a volume of 25 μL, bringing the total volume of each well to 100 μL. The MOI is calculated using the PFU/mL, or TCID50 if unavailable. Each 96-well plate has a control column of 6 wells with cells and virus but no compound (negative control, max CPE), a column with cells but no compound or virus (positive control, minimum CPE), and a column with no cells or virus or compound (background plate/reagent control). The control wells with cells but no virus are given an additional 25 μL of growth media containing an equal quantity of sucrose as those wells receiving the viral stock in order to keep consistent in media and volume conditions. The outer wells of the plate are filled with 125 μL of moat media (DMEM, 100 Penn/Strep) to act as a thermal and evaporative moat around the test wells. Following a 5-day incubation period, the plates are read using ATPlite (50 uL added per well), which quantifies the amount of ATP (a measure of cell health) present in each well. Assay plates are read using the Envision luminometer. […] EC50 ranges are as follows: A<0.01 μM; B 0.01-0.05 μM; C>0.05 μM.
# [2] = human respiratory syncytial virus, 120 h
Structure (SMILES),"EC50 (HMPV A2 TN/94-49; LLC-MK2, 168 h)","EC50 [1, 2]",EC50 (HMPV A2 TN/94-49),EC50 [1]
"Cc1nc2c(OC3CC3)cc(C(=O)NC[C@](O)(c3cc(C4(O)CC4)c(F)c(-c4ccc(F)cc4)n3)C3CC3)cc2cc1Cl (single isomer, unassigned) [Example 49]",> 1000 nM,< 10 nM,,
COc1cc(C(=O)NC[C@](O)(c2cc(C(C)(C)O)c(F)c(-c3ccc(F)cc3)n2)C2CC2)cc2cn(C3CC3)nc12 [Example 1],< 1000 nM,< 10 nM,,
COc1cc(C(=O)NC[C@@](O)(c2ccccc2)c2cc(C(C)(C)O)c(F)c(-c3cc(Cl)c(F)cc3F)n2)cc2cc(C3CC3)nn12 [Example 64],< 1000 nM,< 10 nM,,
[2H]C([2H])([2H])C(O)(c1cc([C@@](O)(CNC(=O)c2cc(OC)c3nn(C(F)F)cc3c2)c2ccccc2)nc(-c2cc(Cl)c(F)cc2F)c1F)C([2H])([2H])[2H] [Example 185],< 1000 nM,< 10 nM,,
COc1cc(C(=O)NC[C@@](O)(c2ccccc2)c2cc(C(C)(C)O)c(F)c(-c3ccc(F)c(Cl)c3Cl)n2)cc2cn(C3CC3)nc12 [Example 67],< 1000 nM,< 10 nM,,
COc1cc(C(=O)NC[C@](O)(c2cc(C3(O)CNC3)c(F)c(-c3cc(Cl)c(F)cc3F)n2)C2CC2)cc2cn(C3CC3)nc12 [Example 170],> 1000 nM,> 50 nM,,
CC(C)(O)c1cc([C@@](O)(CNC(=O)c2cc(Cl)c3nn(C4CC4)cc3c2)C2CC2)nc(-c2ccc(F)cc2)c1F [Example 6],< 1000 nM,< 10 nM,,
COc1cc(C(=O)NC[C@@](O)(c2ccccc2)c2cc(C(C)(C)O)c(F)c(-c3cc(Cl)c(F)cc3F)n2)cc2cn(C(F)F)nc12 [Example 62],< 1000 nM,< 10 nM,,
"COc1cc(C(=O)NC[C@](O)(c2cc(C3(C(N)=O)CC3)c(F)c(-c3cc(Cl)c(F)cc3F)n2)C2CC2)cc2cn(C(F)F)nc12 (single isomer, unassigned) [Example 9]",> 1000 nM,10 to 50 nM,,
COc1cc(C(=O)NC[C@](O)(c2cc(N3CC[C@H](O)C3)cc(-c3cc(Cl)c(F)cc3F)n2)C2CC2)cc2cn(C3CC3)nc12 [Example 199],> 1000 nM,> 50 nM,,
COc1cc(C(=O)NC[C@](O)(c2cc(N3CC[C@@H](O)C3)cc(-c3cc(Cl)c(F)cc3F)n2)C2CC2)cc2cn(C3CC3)nc12 [Example 200],> 1000 nM,> 50 nM,,
"COc1cc(C(=O)NC[C@](O)(c2cc(C3(C(N)=O)CC3)c(F)c(-c3ccc(F)c(Cl)c3F)n2)C2CC2)cc2cn(C3CC3)nc12 (single isomer, unassigned) [Example 20]",> 1000 nM,10 to 50 nM,,
CC(C)(O)c1cc([C@@](O)(CNC(=O)c2ccc3nn(C4CC4)cc3c2)C2CC2)nc(-c2ccc(F)cc2)c1F [Example 3],> 1000 nM,10 to 50 nM,,
COc1cc(C(=O)NC[C@@](O)(c2ccccc2)c2cc(C(C)(C)O)c(F)c(-c3ccc(F)c(Cl)c3F)n2)cc2cn(C3CC3)nc12 [Example 123],< 1000 nM,< 10 nM,,
"NC(=O)C1(c2cc([C@@](O)(CNC(=O)c3cc(OC4CC4)c4nn(C(F)F)cc4c3)C3CC3)nc(-c3cc(Cl)c(F)cc3F)c2F)CC1 (single isomer, unassigned) [Example 18]",> 1000 nM,10 to 50 nM,,
COc1cc(C(=O)NC[C@@](O)(c2ccccc2)c2cc(C(N)=O)c(F)c(-c3cc(Cl)c(F)cc3F)n2)cc2cn(C3CC3)nc12 [Example 189],> 1000 nM,10 to 50 nM,,
COc1cc(C(=O)NC[C@](O)(c2cc(C(C)(C)O)c(F)c(-c3ccc(F)cc3)n2)C2CC2)cc2cn(C3(F)CC3)nc12 [Example 4],< 1000 nM,< 10 nM,,
COc1cc(C(=O)NC[C@@](O)(c2ccccc2)c2cc(C(C)(C)O)c(Cl)c(-c3ccc4c(c3Cl)OC(F)(F)O4)n2)cc2cn(C3CC3)nc12 [Example 136],< 1000 nM,< 10 nM,,
COc1cc(C(=O)NC[C@@](O)(c2ccccc2)c2cc(C(C)(C)O)c(F)c(-c3cc(Cl)c(F)cc3F)n2)cc2cc(Cl)c(C)nc12 [Example 65],< 1000 nM,10 to 50 nM,,

Structure (SMILES),"EC50 (HMPV A2 TN/94-49; LLC-MK2, 168 h)","EC50 [1, 2]",EC50 (HMPV A2 TN/94-49),EC50 [1]
[2H]C([2H])([2H])C(O)(c1cc([C@@](O)(CNC(=O)c2cc(OC)n3nc(C4CC4)cc3c2)c2ccccc2)nc(-c2cc(Cl)c(F)cc2F)c1F)C([2H])([2H])[2H] [Example 184],< 1000 nM,< 10 nM,,
COc1cc(C(=O)NC[C@@](O)(c2ccccc2)c2cc(C(C)(C)O)c(F)c(-c3cccc(Cl)c3Cl)n2)cc2cn(C3CC3)nc12 [Example 79],< 1000 nM,< 10 nM,,
"Cc1nc2c(OC3CC3)cc(C(=O)NC[C@](O)(c3cc(C(O)(C(F)(F)F)C(F)(F)F)c(F)c(-c4ccc(F)cc4)n3)C3CC3)cc2cc1Cl (single isomer, unassigned) [Example 48]",> 1000 nM,> 50 nM,,
"COc1cc(C(=O)NC[C@](O)(c2cc(C3(C(N)=O)CC3)c(F)c(-c3ccc(F)c(Cl)c3F)n2)C2CC2)cc2cn(C(F)F)nc12 (single isomer, unassigned) [Example 21]",> 1000 nM,< 10 nM,,
COc1cc(C(=O)NC[C@](O)(c2cc(C(C)(C)F)c(F)c(-c3cc(Cl)c(F)cc3F)n2)C2CC2)cc2cn(C3CC3)nc12 [Example 177],> 1000 nM,10 to 50 nM,,
Cc1nc2c(OC(F)F)cc(C(=O)NC[C@@](O)(c3ccccc3)c3cc(C(C)(C)O)c(F)c(-c4cc(Cl)c(F)cc4F)n3)cc2cc1Br [Example 66],< 1000 nM,> 50 nM,,
"COc1cc(C(=O)NC[C@](O)(c2cc(C3(O)CC3)c(F)c(-c3ccc(F)cc3)n2)C2CC2)cc2cn(C3CC3)nc12 (single isomer, unassigned) [Example 50]",> 1000 nM,< 10 nM,,
"COc1cc(C(=O)NC[C@](O)(c2cc(C3(C(N)=O)CC3)c(F)c(-c3cc(Cl)c(F)cc3F)n2)C2CC2)cc2cc(Cl)c(C)nc12 (single isomer, unassigned) [Example 19]",> 1000 nM,< 10 nM,,
COc1cc(C(=O)NC[C@](O)(c2cc(C(C)(C)O)c(F)c(-c3ccc(F)cc3)n2)C2CC2)cc2cn(C(F)F)nc12 [Example 2],< 1000 nM,< 10 nM,,
COc1c(C(C)(C)O)cc([C@@](O)(CNC(=O)c2cc(OC)c3nn(C4CC4)cc3c2)C2CC2)nc1-c1cc(Cl)c(F)cc1F [Example 164],> 1000 nM,> 50 nM,,
COc1cc(C(=O)NC[C@@](O)(c2ccccc2)c2cc(C(C)(C)O)c(Cl)c(-c3cc(Cl)c(F)cc3F)n2)cc2cn(C3CC3)nc12 [Example 144],,,< 1000 nM,< 10 nM
[2H]C([2H])([2H])C(O)(c1cc([C@@](O)(CNC(=O)c2cc(OC)c3nn(C4CC4)cc3c2)c2ccccc2)nc(-c2cc(Cl)c(F)cc2F)c1F)C([2H])([2H])[2H] [Example 183],< 1000 nM,< 10 nM,,
"COc1cc(C(=O)NC[C@](O)(c2cc(C3(C(N)=O)CC3)c(F)c(-c3ccc(F)c(Cl)c3F)n2)C2CC2)cc2cn(C3(F)CC3)nc12 (single isomer, unassigned) [Example 22]",> 1000 nM,< 10 nM,,
COc1cc(C(=O)NC[C@](O)(c2cc(C(C)(C)O)c(F)c(-c3cc(Cl)c(F)cc3F)n2)C2CC2)cc2cn(C3CC3)nc12 [Example 52],< 1000 nM,< 10 nM,,
COc1cc(C(=O)NC[C@](O)(c2cc(C3(C#N)CC3)c(F)c(-c3cc(Cl)c(F)cc3F)n2)C2CC2)cc2cn(C(F)F)nc12 [Example 10],> 1000 nM,10 to 50 nM,,
COc1cc(C(=O)NC[C@@](O)(c2ccccc2)c2cc(C(C)(C)O)c(F)c(-c3ccc4c(c3Cl)OC(F)(F)O4)n2)cc2cn(C3CC3)nc12 [Example 74],< 1000 nM,< 10 nM,,
COc1cc(C(=O)NC[C@@](O)(c2ccccc2)c2cc(C(C)(C)O)c(F)c(-c3cc(F)c(F)cc3F)n2)cc2cn(C3CC3)nc12 [Example 86],> 1000 nM,< 10 nM,,
"COc1cc(C(=O)NC[C@](O)(c2cc(C3(C(N)=O)CC3)cc(-c3cc(Cl)c(F)cc3F)n2)C2CC2)cc2cn(C3CC3)nc12 (single isomer, unassigned) [Example 24]",> 1000 nM,10 to 50 nM,,
Cc1nc2c(OC(F)F)cc(C(=O)NC[C@](O)(c3cc(C(C)(C)O)c(F)c(-c4cc(Cl)c(F)cc4F)n3)C3CC3)cc2cc1Br [Example 59],> 1000 nM,< 10 nM,,
